Experimental data taken from PubChem BioAssay (NCI).
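Assay format: 96-well plates, 48-hour exposure. GI50 marks 50% less growth. At the TGI there is no net growth.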

Tests used:
Test in all cases: inhibition of tumour cell growth, NCI panel, 48 h
[1] = system: SF-295 CNS
[2] = system: HCT-15 colon
[3] = system: SN12C renal
[4] = system: NCI-H226 lung
[5] = system: KM20L2 colon
[6] = system: HOP-18 NSCLC
[7] = system: SNB-78 CNS
[8] = system: K-562 leukemia
[9] = system: SK-OV-3 ovarian
[10] = system: 786-0 renal

`CCOC(=O)Cc1csc(Nc2ccccc2[N+](=O)[O-])n1` was tested, and the TGI [1] was greater than 100 µM, the TGI [2] was greater than 100 µM and the TGI [3] was greater than 100 µM. The TGI [4] was greater than 100 µM, the TGI [5] was greater than 100 µM and the TGI [6] was greater than 100 µM. For the same molecule, the TGI [7] was greater than 100 µM, the TGI [8] was greater than 100 µM and the TGI [9] was greater than 100 µM. It also gave a TGI [10] greater than 100 µM.

`CN1Nc2ccccc2CC1=O` was tested, and the TGI [1] was greater than 100 µM, the TGI [2] was greater than 100 µM and the TGI [3] was greater than 100 µM. The TGI [4] was greater than 100 µM, the TGI [5] was greater than 100 µM and the TGI [6] was greater than 100 µM. It also gave a TGI [7] greater than 100 µM, a TGI [8] greater than 100 µM and a TGI [9] greater than 100 µM. For the same molecule, the TGI [10] was greater than 100 µM.

Work on `Nc1nc(Cl)nc2c1ncn2C1CC(O)C(CO)O1` (stereo unspecified) yielded a TGI [1] of 99.9 µM, a TGI [2] greater than 100 µM and a TGI [3] greater than 100 µM. The TGI [4] was 62.5 µM, the TGI [5] was greater than 100 µM and the TGI [6] was greater than 100 µM. The TGI [7] was greater than 100 µM, the TGI [8] was greater than 100 µM and the TGI [9] was greater than 100 µM. The GI50 [10] was 2.45 µM and the TGI [10] was greater than 100 µM.
